System: MV-4-11 cells
Assay: Gene expression microarray analysis (Affymetrix PrimeView) and GSEA
Type: cell-based, human
Set-up: RFU PODN (11730768_x_at) / Fold change /veh PODN (11730768_x_at) / RFU LINC00158 (11744669_a_at) / Fold change /veh LINC00158 (11744669_a_at) / RFU DUSP10 (11751237_a_at) / Fold change /veh DUSP10 (11751237_a_at) / RFU ID3 (11757404_x_at) / Fold change /veh ID3 (11757404_x_at) / RFU PLEKHG5 (11737974_s_at) / Fold change /veh PLEKHG5 (11737974_s_at) / RFU LRRC4B (11730491_at) / Fold change /veh LRRC4B (11730491_at) / RFU GIMAP4 (11747438_a_at) / Fold change /veh GIMAP4 (11747438_a_at) / RFU KRT8 (11758183_x_at) / Fold change /veh KRT8 (11758183_x_at) / RFU CNN1 (11734310_a_at) / Fold change /veh CNN1 (11734310_a_at) / RFU VPS37D (11726825_at) / Fold change /veh VPS37D (11726825_at) / RFU C10orf10 (11716522_x_at) / Fold change /veh C10orf10 (11716522_x_at) / RFU KIR2DL2 /// KIR2DL4 /// KIR2DL5A /// KIR2DL5B /// KIR2DS1 /// KIR2DS2 /// KIR2DS3 /// KIR2DS4 /// KIR3DL3 /// KIR3DL3 /// KIR3DS1 (11738374_at) / Fold change /veh KIR2DL2 /// KIR2DL4 /// KIR2DL5A /// KIR2DL5B /// KIR2DS1 /// KIR2DS2 /// KIR2DS3 /// KIR2DS4 /// KIR3DL3 /// KIR3DL3 /// KIR3DS1 (11738374_at) / RFU C1QL1 (11718748_at) / Fold change /veh C1QL1 (11718748_at) / RFU TMPRSS4 (11747572_a_at) / Fold change /veh TMPRSS4 (11747572_a_at) / RFU HAMP (11756126_x_at) / Fold change /veh HAMP (11756126_x_at) / RFU RNFT2 (11725882_a_at) / Fold change /veh RNFT2 (11725882_a_at) / RFU NR4A2 (11747474_a_at) / Fold change /veh NR4A2 (11747474_a_at) / RFU ABCC12 (11746883_a_at) / Fold change /veh ABCC12 (11746883_a_at) / RFU TMEM136 (11760407_x_at) / Fold change /veh TMEM136 (11760407_x_at) / RFU CLDN22 /// WWC2 (11732394_at) / Fold change /veh CLDN22 /// WWC2 (11732394_at) / RFU HLA-DPB1 (11760878_x_at) / Fold change /veh HLA-DPB1 (11760878_x_at) / RFU SPINT1 (11716480_a_at) / Fold change /veh SPINT1 (11716480_a_at) / RFU GAP43 (11754022_s_at) / Fold change /veh GAP43 (11754022_s_at) / RFU A4GNT (11735810_at) / Fold change /veh A4GNT (11735810_at) / RFU PRB3 (11715151_x_at) / Fold change /veh PRB3 (11715151_x_at) / RFU TUBB4B (11761932_at) / Fold change /veh TUBB4B (11761932_at) / RFU CAPN14 (11732068_a_at) / Fold change /veh CAPN14 (11732068_a_at) / RFU TMCC2 (11721928_a_at) / Fold change /veh TMCC2 (11721928_a_at) / RFU IRGQ (11745062_a_at) / Fold change /veh IRGQ (11745062_a_at) / RFU FAM174B (11720279_a_at) / Fold change /veh FAM174B (11720279_a_at) / RFU TMPRSS4 (11748680_a_at) / Fold change /veh TMPRSS4 (11748680_a_at) / RFU FAM212B (11763350_a_at) / Fold change /veh FAM212B (11763350_a_at) / RFU PLEKHG5 (11743358_a_at) / Fold change /veh PLEKHG5 (11743358_a_at) / RFU ZSCAN30 (11745921_a_at) / Fold change /veh ZSCAN30 (11745921_a_at) / RFU CMKLR1 (11741424_a_at) / Fold change /veh CMKLR1 (11741424_a_at) / RFU LOC101060620 /// MAPK8IP1 (11723275_at) / Fold change /veh LOC101060620 /// MAPK8IP1 (11723275_at) / RFU SPTSSB (11747773_x_at) / Fold change /veh SPTSSB (11747773_x_at) / RFU PRSS12 (11739890_at) / Fold change /veh PRSS12 (11739890_at) / RFU BIN1 (11741810_x_at) / Fold change /veh BIN1 (11741810_x_at) / RFU WNT11 (11732464_a_at) / Fold change /veh WNT11 (11732464_a_at) / RFU C10orf10 (11716521_a_at) / Fold change /veh C10orf10 (11716521_a_at) / RFU C5orf56 (11738089_at) / Fold change /veh C5orf56 (11738089_at) / RFU CYB561 (11721691_x_at) / Fold change /veh CYB561 (11721691_x_at) / RFU ANKRD19P (11752326_a_at) / Fold change /veh ANKRD19P (11752326_a_at) / RFU OR2T12 /// OR2T33 /// OR2T8 (11738714_s_at) / Fold change /veh OR2T12 /// OR2T33 /// OR2T8 (11738714_s_at) / RFU VCAN (11748164_a_at) / Fold change /veh VCAN (11748164_a_at) / RFU JSRP1 (11732532_at) / Fold change /veh JSRP1 (11732532_at) / RFU KRTAP10-11 (11738290_x_at) / Fold change /veh KRTAP10-11 (11738290_x_at) / RFU MYO3A (11730013_a_at) / Fold change /veh MYO3A (11730013_a_at) / RFU EBF3 (11725865_a_at) / Fold change /veh EBF3 (11725865_a_at) / RFU CAMK2N1 (11719241_x_at) / Fold change /veh CAMK2N1 (11719241_x_at) / RFU C5orf56 (11738088_a_at) / Fold change /veh C5orf56 (11738088_a_at) / RFU OLFML3 (11715873_a_at) / Fold change /veh OLFML3 (11715873_a_at) / RFU LOC100653217 /// NTM (11731650_a_at) / Fold change /veh LOC100653217 /// NTM (11731650_a_at) / RFU MAPK11 (11762145_a_at) / Fold change /veh MAPK11 (11762145_a_at) / RFU FIZ1 (11724087_x_at) / Fold change /veh FIZ1 (11724087_x_at) / RFU OASL (11726364_x_at) / Fold change /veh OASL (11726364_x_at) / RFU SOX15 (11748057_x_at) / Fold change /veh SOX15 (11748057_x_at) / RFU CD79A (11719716_a_at) / Fold change /veh CD79A (11719716_a_at) / RFU HIST1H1D (11736915_at) / Fold change /veh HIST1H1D (11736915_at) / RFU CASKIN2 (11723855_a_at) / Fold change /veh CASKIN2 (11723855_a_at) / RFU LOC730098 (11760151_x_at) / Fold change /veh LOC730098 (11760151_x_at) / RFU OR4N2 (11742367_at) / Fold change /veh OR4N2 (11742367_at) / RFU PRRT2 (11749266_a_at) / Fold change /veh PRRT2 (11749266_a_at) / RFU SNX32 (11753110_a_at) / Fold change /veh SNX32 (11753110_a_at) / RFU CDHR5 (11726645_a_at) / Fold change /veh CDHR5 (11726645_a_at) / RFU RCAN1 (11760418_a_at) / Fold change /veh RCAN1 (11760418_a_at) / RFU FAM167A (11723789_a_at) / Fold change /veh FAM167A (11723789_a_at) / RFU FAM26E (11764081_at) / Fold change /veh FAM26E (11764081_at) / RFU ISYNA1 (11749810_s_at) / Fold change /veh ISYNA1 (11749810_s_at) / RFU ACY1 (11761880_at) / Fold change /veh ACY1 (11761880_at) / RFU 11764098_at / Fold change /veh 11764098_at / RFU SAMD14 (11745864_x_at) / Fold change /veh SAMD14 (11745864_x_at) / RFU NPB (11741838_a_at) / Fold change /veh NPB (11741838_a_at) / RFU TMPRSS6 (11731388_a_at) / Fold change /veh TMPRSS6 (11731388_a_at) / RFU KRTAP10-2 (11738614_at) / Fold change /veh KRTAP10-2 (11738614_at) / RFU ARHGAP8 /// PRR5-ARHGAP8 (11727945_x_at) / Fold change /veh ARHGAP8 /// PRR5-ARHGAP8 (11727945_x_at) / RFU KRTAP5-7 /// NADSYN1 (11734609_at) / Fold change /veh KRTAP5-7 /// NADSYN1 (11734609_at) / RFU RASL12 (11751679_a_at) / Fold change /veh RASL12 (11751679_a_at) / RFU CDKN2B (11736163_a_at) / Fold change /veh CDKN2B (11736163_a_at) / RFU PRF1 (11729649_at) / Fold change /veh PRF1 (11729649_at) / RFU, ZNF638 /// ZNF638-IT1 / Fold change vs veh, ZNF638 /// ZNF638-IT1 / RFU, PANK3 / Fold change vs veh, PANK3 / RFU, SH3YL1 / Fold change vs veh, SH3YL1 / RFU, ZEB2 / Fold change vs veh, ZEB2 / RFU, NRIP1 / Fold change vs veh, NRIP1 / RFU, PTTG1IP / Fold change vs veh, PTTG1IP / RFU, CAPN2 / Fold change vs veh, CAPN2 / RFU, MED14 / Fold change vs veh, MED14 / RFU, SNORA58 / Fold change vs veh, SNORA58 / RFU, C1orf63 / Fold change vs veh, C1orf63 / RFU, LRRFIP1 / Fold change vs veh, LRRFIP1 / RFU, NDUFAF7 / Fold change vs veh, NDUFAF7 / RFU, SLC12A2 / Fold change vs veh, SLC12A2 / RFU, IBTK / Fold change vs veh, IBTK / RFU, ESF1 / Fold change vs veh, ESF1 / Fold change vs veh, TMEM50B / RFU, TAOK1 / Fold change vs veh, TAOK1 / RFU, ACBD3 / Fold change vs veh, ACBD3 / RFU, TMA16 / Fold change vs veh, TMA16 / RFU, RWDD3 / Fold change vs veh, RWDD3 / RFU, BCAT1 / Fold change vs veh, BCAT1 / RFU, EDEM3 / Fold change vs veh, EDEM3 / RFU, TMEM33 / Fold change vs veh, TMEM33 / RFU, WDR75 / Fold change vs veh, WDR75 / RFU, AHCTF1 / Fold change vs veh, AHCTF1 / RFU, TFRC / Fold change vs veh, TFRC / RFU, ZDHHC17 / Fold change vs veh, ZDHHC17 / RFU, NOM1 / Fold change vs veh, NOM1 / RFU, ARL8B / Fold change vs veh, ARL8B / RFU, ZBTB11 / Fold change vs veh, ZBTB11 / RFU, TAMM41 / Fold change vs veh, TAMM41 / RFU, KIAA1704 /// LOC100996395 / Fold change vs veh, KIAA1704 /// LOC100996395 / RFU, ING1 / Fold change vs veh, ING1 / RFU, TRMT61B / Fold change vs veh, TRMT61B / RFU, FUBP3 / Fold change vs veh, FUBP3 / RFU, TP53 / Fold change vs veh, TP53 / RFU, TNKS2 / Fold change vs veh, TNKS2 / RFU, ZFP14 / Fold change vs veh, ZFP14 / RFU, ACTR2 / Fold change vs veh, ACTR2 / RFU, PPP3R1 / Fold change vs veh, PPP3R1 / RFU, PIK3R1 / Fold change vs veh, PIK3R1 / RFU, HNRNPA1 / Fold change vs veh, HNRNPA1 / RFU, RNF170 / Fold change vs veh, RNF170 / RFU, ZNF28 / Fold change vs veh, ZNF28 / RFU, RNGTT / Fold change vs veh, RNGTT / RFU, OGT / Fold change vs veh, OGT / RFU, BRD1 / Fold change vs veh, BRD1 / RFU, MARS / Fold change vs veh, MARS / RFU, ZNF655 / Fold change vs veh, ZNF655 / RFU, FAHD1 / Fold change vs veh, FAHD1 / RFU, BDP1 / Fold change vs veh, BDP1 / RFU, LRRCC1 / Fold change vs veh, LRRCC1 / RFU, ARID1A / Fold change vs veh, ARID1A / RFU, ZNF146 / Fold change vs veh, ZNF146 / RFU, ZNF330 / Fold change vs veh, ZNF330 / RFU, GPN3 / Fold change vs veh, GPN3 / RFU, C9orf123 / Fold change vs veh, C9orf123 / RFU, N4BP2L2 / Fold change vs veh, N4BP2L2 / RFU, ARFIP1 / Fold change vs veh, ARFIP1 / RFU, FAM179B / Fold change vs veh, FAM179B / RFU, BCL10 / Fold change vs veh, BCL10 / RFU, UHRF1BP1L / Fold change vs veh, UHRF1BP1L / RFU, BET1 / Fold change vs veh, BET1 / RFU, CNOT2 / Fold change vs veh, CNOT2 / RFU, ZNF268 / Fold change vs veh, ZNF268 / Fold change vs veh, ZNF507 / RFU, DGCR2 / Fold change vs veh, DGCR2 / RFU, WDSUB1 / Fold change vs veh, WDSUB1 / Fold change vs veh, HSP90B1 /// MIR3652 / RFU, ADSS / Fold change vs veh, ADSS / RFU, GK / Fold change vs veh, GK / RFU, ZNF148 / Fold change vs veh, ZNF148 / RFU, TAF9 / Fold change vs veh, TAF9 / RFU, SLC1A5 / Fold change vs veh, SLC1A5 / RFU, SLMO2 / Fold change vs veh, SLMO2 / RFU, ABCC4 / Fold change vs veh, ABCC4 / RFU, LOC101060439 /// RAP1B / Fold change vs veh, LOC101060439 /// RAP1B / RFU, RFX7 / Fold change vs veh, RFX7 / RFU, GTPBP10 / Fold change vs veh, GTPBP10 / RFU, CNEP1R1 / Fold change vs veh, CNEP1R1 / RFU, BIVM-ERCC5 /// ERCC5 / Fold change vs veh, BIVM-ERCC5 /// ERCC5 / RFU, ILF3 / Fold change vs veh, ILF3 / RFU 11762660_at / Fold change /veh 11762660_at / RFU VCAN (11757783_s_at) / Fold change /veh VCAN (11757783_s_at) / RFU DDX43 (11728927_at) / Fold change /veh DDX43 (11728927_at) / RFU KRT8 (11758188_x_at) / Fold change /veh KRT8 (11758188_x_at) / RFU NKD1 (11759106_at) / Fold change /veh NKD1 (11759106_at) / RFU SRD5A1 (11742802_a_at) / Fold change /veh SRD5A1 (11742802_a_at) / RFU TPSAB1 /// TPSB2 (11721975_s_at) / Fold change /veh TPSAB1 /// TPSB2 (11721975_s_at) / RFU GSTM3 (11746129_a_at) / Fold change /veh GSTM3 (11746129_a_at) / RFU IL23R (11737362_x_at) / Fold change /veh IL23R (11737362_x_at) / RFU TMEM51 (11727254_a_at) / Fold change /veh TMEM51 (11727254_a_at) / RFU PIWIL2 (11732686_x_at) / Fold change /veh PIWIL2 (11732686_x_at) / RFU ORM1 (11744905_x_at) / Fold change /veh ORM1 (11744905_x_at) / RFU CCDC152 (11743942_at) / Fold change /veh CCDC152 (11743942_at) / RFU ECM1 (11717891_a_at) / Fold change /veh ECM1 (11717891_a_at) / RFU IL23R (11748794_a_at) / Fold change /veh IL23R (11748794_a_at) / RFU TNFAIP8L3 (11732012_x_at) / Fold change /veh TNFAIP8L3 (11732012_x_at) / RFU MBOAT4 (11741988_at) / Fold change /veh MBOAT4 (11741988_at) / RFU 11764193_at / Fold change /veh 11764193_at / RFU TMEM53 (11763286_at) / Fold change /veh TMEM53 (11763286_at) / RFU MAGEB2 (11727129_at) / Fold change /veh MAGEB2 (11727129_at) / RFU TMEM200A (11744735_a_at) / Fold change /veh TMEM200A (11744735_a_at) / RFU CCDC152 (11751479_a_at) / Fold change /veh CCDC152 (11751479_a_at) / RFU FAM211A (11726209_a_at) / Fold change /veh FAM211A (11726209_a_at) / RFU RGS16 (11746705_a_at) / Fold change /veh RGS16 (11746705_a_at) / RFU VCAN (11755009_s_at) / Fold change /veh VCAN (11755009_s_at) / RFU RHOB (11743442_s_at) / Fold change /veh RHOB (11743442_s_at) / RFU RGS16 (11720943_a_at) / Fold change /veh RGS16 (11720943_a_at) / RFU RGS16 (11720944_at) / Fold change /veh RGS16 (11720944_at) / RFU, VPS4B / Fold change vs veh, VPS4B / RFU, CREB1 / Fold change vs veh, CREB1 / RFU, DNAJC13 / Fold change vs veh, DNAJC13 / RFU, GNAQ / Fold change vs veh, GNAQ / RFU, CDK5R1 / Fold change vs veh, CDK5R1 / RFU, ZRANB3 / Fold change vs veh, ZRANB3 / RFU, CUL4A / Fold change vs veh, CUL4A / RFU, CCNY / Fold change vs veh, CCNY / RFU, UFL1 / Fold change vs veh, UFL1 / RFU, COG3 / Fold change vs veh, COG3 / RFU, DIAPH2 / Fold change vs veh, DIAPH2 / RFU, SKA2 / Fold change vs veh, SKA2 / RFU, AFF3 / Fold change vs veh, AFF3 / RFU, LMF1 / Fold change vs veh, LMF1 / RFU, IPO11 / Fold change vs veh, IPO11 / RFU, DFFB / Fold change vs veh, DFFB / RFU, FOXP1 / Fold change vs veh, FOXP1 / RFU, CARD8 / Fold change vs veh, CARD8 / RFU, STRN3 / Fold change vs veh, STRN3 / RFU, ADK / Fold change vs veh, ADK / RFU, RASSF2 / Fold change vs veh, RASSF2 / RFU, WIPF1 / Fold change vs veh, WIPF1 / RFU, LARP1B / Fold change vs veh, LARP1B / RFU, RASA1 / Fold change vs veh, RASA1 / RFU, RB1 / Fold change vs veh, RB1 / RFU, PPFIA1 / Fold change vs veh, PPFIA1 / RFU, MAT2A / Fold change vs veh, MAT2A / RFU, CCT5 / Fold change vs veh, CCT5 / RFU, WDR92 / Fold change vs veh, WDR92 / RFU, CUX1 / Fold change vs veh, CUX1 / RFU, TTC7A / Fold change vs veh, TTC7A / RFU, TMEM135 / Fold change vs veh, TMEM135 / RFU, DEPTOR / Fold change vs veh, DEPTOR / RFU, CPM / Fold change vs veh, CPM / RFU, DNAJB6 / Fold change vs veh, DNAJB6 / RFU, CACNA2D3 / Fold change vs veh, CACNA2D3 / RFU, DTX4 / Fold change vs veh, DTX4 / RFU, TFCP2 / Fold change vs veh, TFCP2 / RFU, GMCL1 /// GMCL1P1 / Fold change vs veh, GMCL1 /// GMCL1P1 / RFU, AEBP2 / Fold change vs veh, AEBP2 / RFU, SNHG1 /// SNORD22 /// SNORD25 /// SNORD26 /// SNORD27 /// SNORD28 /// SNORD29 /// SNORD31 / Fold change vs veh, SNHG1 /// SNORD22 /// SNORD25 /// SNORD26 /// SNORD27 /// SNORD28 /// SNORD29 /// SNORD31 / Fold change (Aza/veh), C12orf56 (ProbeSet 11735607_a_at) / Fold change (ACY-1035/veh), C12orf56 (ProbeSet 11735607_a_at) / Fold change (Aza/veh), FGFR1OP (ProbeSet 11751329_s_at) / Fold change (ACY-1035/veh), FGFR1OP (ProbeSet 11751329_s_at) / Fold change (Aza/veh), VPS36 (ProbeSet 11739960_a_at) / Fold change (ACY-1035/veh), VPS36 (ProbeSet 11739960_a_at) / RFU SYPL1 (11715823_x_at) / Fold change /veh SYPL1 (11715823_x_at) / RFU IGFBP7 (11715501_s_at) / Fold change /veh IGFBP7 (11715501_s_at) / RFU REEP3 (11722064_at) / Fold change /veh REEP3 (11722064_at) / RFU IGLL1 (11728026_x_at) / Fold change /veh IGLL1 (11728026_x_at): dose or concentration left out as unconfirmed
Details: ProbeSet 11716844_s_at; LIST D

In the case of Nc1ccc(-c2cccs2)cc1NC(=O)c1ccc2c(c1)cc(C1CC1)n2CCN1CCOCC1 [ACY-1035], the “RFU, DNAJC13” value is reported as 129.69 RFU.

— PMC5218480 (PLoS ONE, 2017)
